Experimental data: ChEMBL document CHEMBL1131648, “Derivatization of soyasapogenol A and their hepatoprotective activities” (1998)

System: HepG2
Assay: Hepatoprotective activity against aflatoxin B1 (10e-5 M) induced Hep G2 cells at a dose of 10 ug/ml
Format: functional, Homo sapiens

First: CC1(C)C[C@@H](O)[C@]2(C)CC[C@]3(C)C(=CCC4[C@@]5(C)CC[C@H](O)[C@](C)(CO)C5CC[C@]43C)[C@@H]2C1 (stereo partly drawn)
Second: CC1(C)C[C@H]2C3=CCC4[C@@]5(C)CC[C@H](O)[C@](C)(CO)C5CC[C@@]4(C)[C@]3(C)CC[C@@]2(C)C[C@@H]1O (stereo partly drawn)
The Protection of the first is lower: 14% for the first, 25% for the second.

First: CO[C@@H]1[C@H](OC)C(C)(C)C[C@H]2C3=CCC4[C@@]5(C)CC[C@H](O)[C@](C)(CO)C5CC[C@@]4(C)[C@]3(C)CC[C@@]12C (stereo partly drawn)
Second: CO[C@H]1[C@@H](O)[C@]2(C)CC[C@]3(C)C(=CCC4[C@@]5(C)CC[C@H](O)[C@](C)(CO)C5CC[C@]43C)[C@@H]2CC1(C)C (stereo partly drawn)
The Protection of the first is lower: 0% for the first, 8% for the second.

Compared with `CC(=O)O[C@@H]1[C@H](OC(C)=O)C(C)(C)C[C@H]2C3=CCC4[C@@]5(C)CC[C@H](O)[C@](C)(CO)C5CC[C@@]4(C)[C@]3(C)CC[C@@]12C` (stereo partly drawn), `CC(=O)O[C@H]1[C@@H](O)[C@]2(C)CC[C@]3(C)C(=CCC4[C@@]5(C)CC[C@H](O)[C@](C)(CO)C5CC[C@]43C)[C@@H]2CC1(C)C` (stereo partly drawn) is higher in Protection: 0% for the first, 25% for the second.

Compared with `CC(=O)OC[C@]1(C)C2CC[C@]3(C)C(CC=C4[C@@H]5CC(C)(C)[C@@H](O)[C@@H](O)[C@]5(C)CC[C@]43C)[C@@]2(C)CC[C@@H]1OC(C)=O` (stereo partly drawn), `COC[C@]1(C)C2CC[C@]3(C)C(CC=C4[C@@H]5CC(C)(C)[C@@H](O)[C@@H](O)[C@]5(C)CC[C@]43C)[C@@]2(C)CC[C@@H]1OC` (stereo partly drawn) is higher in Protection: 0% for the first, 7% for the second.

Compared with `CC1(C)C[C@H]2C3=CCC4[C@@]5(C)CC[C@H](O)[C@](C)(CO)C5CC[C@@]4(C)[C@]3(C)CC[C@@]2(C)C(=O)[C@@H]1O` (stereo partly drawn), `CC1(C)C[C@H]2C3=CC[C@@H]4[C@@]5(C)CC[C@H](O)[C@](C)(CO)[C@@H]5CC[C@@]4(C)[C@]3(C)CC[C@@]2(C)[C@@H](O)[C@H]1O` is lower in Protection: 107% for the first, 8% for the second.

Compared with `CO[C@@H]1[C@H](O)C(C)(C)C[C@H]2C3=CCC4[C@@]5(C)CC[C@H](O)[C@](C)(CO)C5CC[C@@]4(C)[C@]3(C)CC[C@@]12C` (stereo partly drawn), `CC1(C)C[C@H]2C3=CC[C@@H]4[C@@]5(C)CC[C@H](O)[C@](C)(CO)[C@@H]5CC[C@@]4(C)[C@]3(C)CC[C@@]2(C)[C@@H](O)[C@@H]1O` is lower in Protection: 20% for the first, 0% for the second.

`CC1(C)C[C@H]2C3=CC[C@@H]4[C@@]5(C)CC[C@H](O)[C@](C)(CO)[C@@H]5CC[C@@]4(C)[C@]3(C)CC[C@@]2(C)[C@H](O)[C@H]1O` and `CC1(C)C[C@H]2C3=CC[C@@H]4[C@@]5(C)CC[C@H](O)[C@](C)(CO)[C@@H]5CC[C@@]4(C)[C@]3(C)CC[C@@]2(C)[C@H](O)[C@@H]1O` [SOYASAPOGENOL A] are the same in Protection: 0% for the first, 0% for the second.

First: CC1(C)C[C@H]2C3=CCC4[C@@]5(C)CC[C@H](O)[C@](C)(CO)C5CC[C@@]4(C)[C@]3(C)CC[C@@]2(C)CC1=O (stereo partly drawn)
Second: CC1(C)C[C@H]2C3=CCC4[C@@]5(C)CC[C@H](O)[C@](C)(CO)C5CC[C@@]4(C)[C@]3(C)CC[C@@]2(C)C(=O)C1=O (stereo partly drawn)
The Protection of the first is lower: 37% for the first, 131% for the second.

`CC1(C)C[C@H]2C3=CCC4[C@@]5(C)CC[C@H](O)[C@](C)(CO)C5CC[C@@]4(C)[C@]3(C)CC[C@@]2(C)C[C@H]1O` (stereo partly drawn) was tested, and the Protection was 0%.

System: HepG2
Assay: Hepatoprotective activity against aflatoxin B1 (10e-5 M) induced Hep G2 cells at a dose of 20 ug/ml
Format: functional, Homo sapiens

`CC1(C)[C@@H](O[C@H]2O[C@H](C(=O)O)[C@@H](O)[C@H](O)[C@H]2O[C@@H]2O[C@H](C(=O)O)[C@@H](O)[C@H](O)[C@H]2O)CC[C@]2(C)[C@H]3C(=O)C=C4[C@@H]5C[C@@](C)(C(=O)O)CC[C@]5(C)CC[C@@]4(C)[C@]3(C)CC[C@@H]12` [GLYCYRRHIZIN] was tested, and the Protection was 15%.
